The source made the active and inactive calls. No cut-off for these calls is given here.
How the values were obtained:
Mus musculus [1] = test: Antipsychotic activity in ip dosed mouse administered 15 mins prior to testing by SmartCube automated system based method; format: functional; details: Mus musculus, ip; read-out: MED
Mus musculus [2] = test: Antipsychotic activity in mouse at 30 mg/kg, ip administered 15 mins prior to testing by SmartCube automated system based method relative to standard compound; format: functional
Mus musculus [3] = test: Antipsychotic activity in mouse at 3 to 30 mg/kg, ip dosed 15 mins prior to testing by SmartCube automated system based method relative to standard compound; format: functional, organism-based
Cytochrome P450 2D6 = Cytochrome P450 2D6 (Homo sapiens, UniProt P10635); test: Inhibition of CYP2D6 in human liver microsomes assessed as reduction in dextromethorphan o-demethylation by LC-MS/MS analysis; format: ADME
Sequence of Cytochrome P450 2D6 (P10635 whole entry): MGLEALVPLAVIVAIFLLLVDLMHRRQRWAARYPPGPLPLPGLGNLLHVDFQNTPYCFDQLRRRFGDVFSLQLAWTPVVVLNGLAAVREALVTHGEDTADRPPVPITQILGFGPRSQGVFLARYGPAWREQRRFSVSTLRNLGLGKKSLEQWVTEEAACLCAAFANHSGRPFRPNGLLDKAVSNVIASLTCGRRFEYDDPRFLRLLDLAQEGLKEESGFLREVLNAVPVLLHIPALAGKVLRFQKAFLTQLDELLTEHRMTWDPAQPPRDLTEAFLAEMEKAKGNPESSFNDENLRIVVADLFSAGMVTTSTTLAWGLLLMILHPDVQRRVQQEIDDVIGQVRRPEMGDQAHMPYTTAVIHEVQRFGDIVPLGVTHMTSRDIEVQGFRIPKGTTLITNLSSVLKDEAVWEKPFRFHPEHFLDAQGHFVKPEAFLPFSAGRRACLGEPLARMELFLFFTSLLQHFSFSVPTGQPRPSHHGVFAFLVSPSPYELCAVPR

[4] = Half life in mouse liver microsomes at 3 uM in presence of NADPH by LC-MS/MS analysis; format: ADME
CYP1A = CYP1A (Homo sapiens, UniProt P04798+P05177); test: Inhibition of CYP1A in human liver microsomes assessed as reduction in ethoxyresorufin o-deethylation by fluorescence assay; details: probe ethoxyresorufin (O-deethylation)
Cytochrome P450 3A4 = Cytochrome P450 3A4 (Homo sapiens, UniProt P08684); test: Inhibition of CYP3A4 in human liver microsomes assessed as reduction in midazolam 1-hydroxylation/testosterone 6beta-hydroxylation by LC-MS/MS analysis; format: ADME
Sequence of Cytochrome P450 3A4 (P08684 whole entry): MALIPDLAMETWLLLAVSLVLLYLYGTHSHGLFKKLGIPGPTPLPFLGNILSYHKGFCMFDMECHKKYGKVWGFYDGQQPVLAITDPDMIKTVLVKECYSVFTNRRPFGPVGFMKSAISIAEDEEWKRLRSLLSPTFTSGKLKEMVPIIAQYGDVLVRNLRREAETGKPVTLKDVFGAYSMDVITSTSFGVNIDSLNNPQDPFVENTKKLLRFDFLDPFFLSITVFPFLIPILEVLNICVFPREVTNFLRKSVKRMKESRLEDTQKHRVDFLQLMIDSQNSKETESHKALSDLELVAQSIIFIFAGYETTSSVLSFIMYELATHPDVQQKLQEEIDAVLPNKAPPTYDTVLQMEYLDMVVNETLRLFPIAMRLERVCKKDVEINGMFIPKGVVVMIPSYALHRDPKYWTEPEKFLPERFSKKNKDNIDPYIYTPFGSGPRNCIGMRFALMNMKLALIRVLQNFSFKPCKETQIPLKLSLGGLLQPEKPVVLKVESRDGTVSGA

Cytochrome P450 2C19 = Cytochrome P450 2C19 (Homo sapiens, UniProt P33261); test: Inhibition of CYP2C19 in human liver microsomes assessed as reduction in S-mephenytoin 4-hydroxylation by LC-MS/MS analysis; format: ADME
Sequence of Cytochrome P450 2C19 (P33261 whole entry): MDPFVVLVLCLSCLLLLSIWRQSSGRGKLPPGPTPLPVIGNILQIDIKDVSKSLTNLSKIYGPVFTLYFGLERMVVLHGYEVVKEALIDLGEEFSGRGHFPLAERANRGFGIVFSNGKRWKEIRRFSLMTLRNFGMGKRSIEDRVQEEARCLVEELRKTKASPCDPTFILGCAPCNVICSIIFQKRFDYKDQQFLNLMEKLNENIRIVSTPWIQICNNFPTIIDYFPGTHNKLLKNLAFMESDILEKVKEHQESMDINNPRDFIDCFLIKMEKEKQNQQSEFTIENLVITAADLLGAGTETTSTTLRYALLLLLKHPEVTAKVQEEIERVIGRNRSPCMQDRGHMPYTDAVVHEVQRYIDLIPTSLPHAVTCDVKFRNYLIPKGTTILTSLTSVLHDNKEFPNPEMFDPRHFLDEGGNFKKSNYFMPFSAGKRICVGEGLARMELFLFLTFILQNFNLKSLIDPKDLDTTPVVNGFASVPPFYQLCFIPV

[5] = Half life in human liver microsomes at 3 uM in presence of NADPH by LC-MS/MS analysis; format: ADME
[6] = molecular target: D(2) dopamine receptor (Homo sapiens) (UniProt P14416); test: Displacement of [3H]methyl-spiperone from human recombinant D2 receptor expressed in HEK293 cells at 10 uM after 60 mins by scintillation counting analysis; format: cell-based
Sequence of D(2) dopamine receptor (Homo sapiens) (P14416 whole entry): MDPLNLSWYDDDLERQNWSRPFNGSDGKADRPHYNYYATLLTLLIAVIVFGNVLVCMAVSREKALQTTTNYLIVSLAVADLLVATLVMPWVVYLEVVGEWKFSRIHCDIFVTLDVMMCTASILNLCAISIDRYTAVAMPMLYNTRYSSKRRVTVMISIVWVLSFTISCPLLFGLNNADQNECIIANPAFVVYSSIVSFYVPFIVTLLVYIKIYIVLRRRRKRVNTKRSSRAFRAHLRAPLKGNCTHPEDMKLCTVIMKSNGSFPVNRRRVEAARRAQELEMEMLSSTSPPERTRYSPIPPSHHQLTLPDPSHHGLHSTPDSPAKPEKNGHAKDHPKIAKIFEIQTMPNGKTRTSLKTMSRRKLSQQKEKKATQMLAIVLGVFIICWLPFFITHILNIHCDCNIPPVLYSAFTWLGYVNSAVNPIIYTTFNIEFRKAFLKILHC

[7] = Protein binding in rat plasma at 5 uM by LC-MS/MS based equilibrium dialysis method; format: ADME, cell-free; details: read-out: PPB (converted)
Mus musculus [8] = test: Antipsychotic activity in mouse at 30 mg/kg, ip administered 15 mins prior to testing by SmartCube automated system based method relative to vehicle; format: functional
[9] = Protein binding in mouse plasma at 5 uM by LC-MS/MS based equilibrium dialysis method; format: ADME, cell-free; details: read-out: PPB (converted)
[10] = molecular target: Voltage-gated inwardly rectifying potassium channel KCNH2 (Homo sapiens, UniProt Q12809); test: Inhibition of human ERG; details: read-out: IC50
Sequence of Voltage-gated inwardly rectifying potassium channel KCNH2 (Q12809 whole entry): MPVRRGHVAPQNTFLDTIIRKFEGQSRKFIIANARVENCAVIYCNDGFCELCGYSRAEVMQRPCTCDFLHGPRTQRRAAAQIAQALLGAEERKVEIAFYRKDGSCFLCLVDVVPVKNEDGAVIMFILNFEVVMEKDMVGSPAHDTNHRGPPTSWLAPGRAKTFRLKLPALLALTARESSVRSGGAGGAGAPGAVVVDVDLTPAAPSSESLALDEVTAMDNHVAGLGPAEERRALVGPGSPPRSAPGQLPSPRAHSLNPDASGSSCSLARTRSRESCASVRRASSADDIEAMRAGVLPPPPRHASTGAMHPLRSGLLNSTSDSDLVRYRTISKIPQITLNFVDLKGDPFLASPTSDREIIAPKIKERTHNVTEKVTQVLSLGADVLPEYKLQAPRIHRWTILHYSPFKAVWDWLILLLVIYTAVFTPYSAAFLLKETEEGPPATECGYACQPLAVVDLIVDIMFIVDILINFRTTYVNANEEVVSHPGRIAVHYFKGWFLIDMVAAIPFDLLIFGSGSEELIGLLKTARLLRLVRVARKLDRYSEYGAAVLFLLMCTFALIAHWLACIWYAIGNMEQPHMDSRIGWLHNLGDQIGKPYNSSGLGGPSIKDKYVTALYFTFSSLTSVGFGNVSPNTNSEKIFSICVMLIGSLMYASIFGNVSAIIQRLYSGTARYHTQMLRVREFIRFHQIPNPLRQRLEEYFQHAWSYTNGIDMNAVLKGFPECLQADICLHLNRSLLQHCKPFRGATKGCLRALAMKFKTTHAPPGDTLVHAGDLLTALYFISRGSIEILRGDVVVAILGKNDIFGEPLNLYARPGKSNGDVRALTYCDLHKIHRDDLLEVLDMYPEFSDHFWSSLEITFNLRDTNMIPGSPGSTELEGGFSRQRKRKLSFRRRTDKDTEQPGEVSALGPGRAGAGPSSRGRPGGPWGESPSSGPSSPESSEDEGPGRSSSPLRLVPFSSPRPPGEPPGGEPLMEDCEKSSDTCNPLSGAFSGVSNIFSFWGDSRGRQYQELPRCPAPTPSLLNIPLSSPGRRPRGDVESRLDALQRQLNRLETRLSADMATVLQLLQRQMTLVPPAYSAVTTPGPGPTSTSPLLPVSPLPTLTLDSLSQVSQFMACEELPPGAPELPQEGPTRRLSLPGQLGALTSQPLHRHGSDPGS

[11] = Half life in rat liver microsomes at 3 uM in presence of NADPH by LC-MS/MS analysis; format: ADME
Cytochrome P450 2C9 = Cytochrome P450 2C9 (Homo sapiens, UniProt P11712); test: Inhibition of CYP2C9 in human liver microsomes assessed as reduction in tolbutamide 4-hydroxylation by LC-MS/MS analysis; format: ADME
Sequence of Cytochrome P450 2C9 (P11712 whole entry): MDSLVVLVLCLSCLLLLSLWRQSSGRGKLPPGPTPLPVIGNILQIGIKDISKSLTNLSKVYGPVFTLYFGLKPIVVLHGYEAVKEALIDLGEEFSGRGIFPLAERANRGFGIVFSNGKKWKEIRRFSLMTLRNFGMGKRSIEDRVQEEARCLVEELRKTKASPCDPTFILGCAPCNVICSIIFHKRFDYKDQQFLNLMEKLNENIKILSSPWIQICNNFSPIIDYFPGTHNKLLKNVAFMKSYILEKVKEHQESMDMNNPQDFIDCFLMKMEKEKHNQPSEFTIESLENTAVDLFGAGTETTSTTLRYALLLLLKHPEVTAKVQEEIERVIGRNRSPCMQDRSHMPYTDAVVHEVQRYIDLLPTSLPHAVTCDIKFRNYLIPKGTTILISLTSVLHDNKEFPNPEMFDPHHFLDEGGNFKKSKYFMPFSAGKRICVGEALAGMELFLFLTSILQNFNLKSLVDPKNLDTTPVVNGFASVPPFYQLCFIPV

CCc1cc(Br)c(C2C=CN=CN2)s1.Cl (centres undefined)
minimal effective dose (Mus musculus [1]): 30 mg/kg

Cc1sc2cc(Cl)ccc2c1C1C=CN=CN1.Cl (centres undefined)
minimal effective dose (Mus musculus [1]): 30 mg/kg

Brc1c(C2C=CN=CN2)sc2ccccc12 (centres undefined)
Activity (Mus musculus [2]): Active

Cc1sc(C2C=CN=CN2)c(C)c1C.Cl (centres undefined)
minimal effective dose (Mus musculus [1]): 30 mg/kg

CC1=NC=C(Cl)C(c2sc3ccccc3c2C)N1 (centres undefined)
Activity (Mus musculus [2]): Active

CC1=CN=CNC1c1sc2ccccc2c1C (centres undefined)
Activity (Mus musculus [2]): Active

CCc1ccc(C2C=CN=CN2)s1.Cl (centres undefined)
minimal effective dose (Mus musculus [1]): 10 mg/kg

Cc1c(F)sc(C2C=CN=CN2)c1C.Cl (centres undefined)
minimal effective dose (Mus musculus [1]): 10 mg/kg

Fc1c(C2NC=Nc3ccccc32)sc2ccccc12 (centres undefined)
Activity (Mus musculus [2]): Active

CC1=CN=CNC1c1c(C)sc2ccccc12.Cl (centres undefined)
minimal effective dose (Mus musculus [1]): 30 mg/kg

Cc1sc2ccccc2c1C1NC=Nc2cc(F)ccc21.Cl (centres undefined)
minimal effective dose (Mus musculus [1]): 30 mg/kg

Cc1csc(C2C=CN=CN2)c1C (stereo in doubt; 12a)
Activity (Mus musculus [3]): Active

Cc1csc(-c2ccncn2)c1C
Activity (Mus musculus [3]): Active

Cl.Fc1sc2ccccc2c1C1NC=NC=C1Cl (centres undefined)
minimal effective dose (Mus musculus [1]): 30 mg/kg

Cc1cc(C2C=CN=CN2)c(C)s1.Cl (racemic)
IC50 (Cytochrome P450 2D6): 6.3 µM
half-life at 3 µM [4]: 155 min
IC50 (CYP1A): > 25 µM
IC50 (Cytochrome P450 3A4): 19.8 µM
IC50 (Cytochrome P450 2C19): 12.7 µM
half-life at 3 µM [5]: 48 min
inhibition [6]: inactive
fraction unbound at 5 µM [7]: 0.3
Activity (Mus musculus [2]): 40%
Activity (Mus musculus [8]): >95%
fraction unbound at 5 µM [9]: 0.24
IC50 [10]: > 25 µM
half-life at 3 µM [11]: 39 min
IC50 (Cytochrome P450 2C9): > 25 µM

Cc1sc2c(c1C1C=CN=CN1)CCCC2.Cl (centres undefined)
minimal effective dose (Mus musculus [1]): 10 mg/kg
